In PMC10141620 (Viruses, 2023):
“Also recorded” adds a separate entry of the source. Read-outs that look alike come from different tables or passages of the source.

Legend:
[1] = test system: NL4-3ΔEnv-NanoLuc/SARS-CoV-2 (USA-WA1/2020) pseudovirus; assay: microbe, parasite or virus in culture; type: cell-based
in vitro [2] = conditions: human
in vitro [3] = conditions: human; remark: listed apart in the source
[4] = test system: NL4-3ΔEnv-NanoLuc/SARS-CoV-1 pseudovirus; assay: microbe, parasite or virus in culture; type: cell-based; conditions: Severe acute respiratory syndrome coronavirus
[5] = test system: NL4-3ΔEnv-NanoLuc/MERS-CoV pseudovirus; assay: microbe, parasite or virus in culture; type: cell-based; conditions: Middle East respiratory syndrome-related coronavirus
[6] = test system: NL4-3ΔEnvLuc/A-MLV pseudovirus; assay: microbe, parasite or virus in culture; type: cell-based, amphotropic murine leukemia virus (A-MLV); conditions: 293T/ACE2, read-out: A-MLV IC50
[7] = test system: SARS-CoV-2 spike (Wuhan-Hu-1) mediated cell-to-cell fusion, Jurkat donor / 293T/ACE2 acceptor cells; assay: microbe, parasite or virus in culture; type: cell-based; conditions: for IC50: Severe acute respiratory syndrome coronavirus 2, 4 h, read-out: IC50, cell-to-cell fusion inhibition
in vitro [8] = conditions: human; remark: listed apart in the source
in vitro [9] = conditions: human; remark: listed apart in the source
in vitro [10] = conditions: human; remark: listed apart in the source
SARS-CoV-1 Urbani = assay: microbe, parasite or virus in culture; type: cell-based; conditions: Severe acute respiratory syndrome coronavirus, Calu-3, read-out: IC50, SARS-CoV-1 Urbani
MERS-CoV, EMC/2012 = assay: microbe, parasite or virus in culture; type: cell-based; conditions: Middle East respiratory syndrome-related coronavirus, Calu-3, read-out: IC50, MERS-CoV
in vitro [11] = conditions: human; remark: listed apart in the source
[12] = Calu-3, read-out: SARS-CoV-2 USA-WA1/2020 IC50
[13] = Pseudovirus, 293T/ACE2, read-out: IC50, range over both cell lines
[14] = 293T/ACE2, read-out: SARS-CoV-1 IC50
[15] = A549-ACE2, read-out: SARS-CoV-1 IC50
[16] = Calu-3, read-out: SARS-CoV-1 IC50
[17] = Caco-2, read-out: MERS-CoV IC50
[18] = Calu-3, read-out: MERS-CoV IC50

Compound | IC50 ([1]; Pseudovirus, 293T/ACE2) | IC50 ([1]; Pseudovirus, A549-ACE2) | CC50 (in vitro [2]) | CC50 (in vitro [3]) | further results
Cc1ccc2c(nc3s/c(=C\c4ccc(-c5ccccc5C(=O)O)o4)c(=O)n32)c1C [NBCoV68] | 3.9 ± 0.1 µM | 2.3 ± 0.07 µM | > 50 µM | > 50 µM | –
O=C(O)c1cc(C(=O)O)cc(-c2ccc(/C=c3/sc4nc5ccccc5n4c3=O)o2)c1 [NBCoV76] | > 10 µM | > 10 µM | > 50 µM | > 50 µM | –
COc1cc(/C=c2/sc3nc4ccccc4n3c2=O)cc(I)c1OCC(=O)O [NBCoV72] | > 10 µM | > 10 µM | > 50 µM | > 50 µM | –
Cc1ccc2nc3s/c(=C/c4coc(-c5ccc(Cl)c(C(=O)O)c5)c4)c(=O)n3c2c1 [NBCoV35] | 0.198 ± 0.009 µM | 0.126 ± 0.003 µM | ~50 µM | ~50 µM | IC50 [1, 12]: 0.36 ± 0.035 µM; IC50 [1, 13]: 0.066 to 0.198 µM; IC50 [4, 14]: 0.38 ± 0.069 µM; IC50 [4, 15]: 0.363 ± 0.011 µM; IC50 [4, 16]: 1.25 ± 0.045 µM; IC50 [5, 17]: 0.472 ± 0.043 µM; IC50 [5, 18]: 1.67 ± 0.225 µM; IC50 ([5]; MRC5, read-out: MERS-CoV IC50): 0.715 ± 0.043 µM; IC50 [6]: 1.82 ± 0.025 µM; IC50, cell-to-cell fusion inhibition ([7]; 4 h): the least active; IC50 [7]: 2.8 µM; CC50 (in vitro [8]): > 50 µM; CC50 (in vitro [9]): > 50 µM; CC50 (in vitro [10]): > 50 µM
Cc1cc(C)c2nc3s/c(=C\c4ccc(-c5ccc(Cl)c(C(=O)O)c5)o4)c(=O)n3c2c1 [NBCoV37] | 0.066 ± 0.002 µM | 0.145 ± 0.012 µM | 42.5 ± 2 µM | ~50 µM | IC50 [1, 12]: 0.368 ± 0.045 µM; IC50 [1, 13]: 0.066 to 0.198 µM; IC50 [4, 14]: 0.34 ± 0.034 µM; IC50 [4, 15]: 0.095 ± 0.001 µM; IC50 [4, 16]: 1 ± 0.132 µM; IC50 [5, 17]: 0.161 ± 0.053 µM; IC50 [5, 18]: 0.877 ± 0.05 µM; IC50 ([5]; MRC5, read-out: MERS-CoV IC50): 0.229 ± 0.02 µM; IC50 ([5]; read-out: MERS-CoV IC50, range over both cell lines): 0.161 to 0.229 µM; IC50 [6]: 1.51 ± 0.088 µM; IC50 [7]: 1.4 µM; CC50 (in vitro [8]): > 50 µM; CC50 (in vitro [9]): 48 ± 2 µM; CC50 (in vitro [10]): > 50 µM
O=c1/c(=C\c2ccc(-c3cccc(Cl)c3)o2)sc2nc3ccccc3n12 [NBCoV71] | > 10 µM | > 10 µM | – | – | –
O=C(O)c1cc(C(=O)O)cc(-c2ccc(C=c3sc4nc5ccccc5n4c3=O)o2)c1 [NBCoV62] | > 10 µM | > 10 µM | > 50 µM | > 50 µM | –
Cc1ccc(-c2ccc(/C=c3/sc4nc5ccccc5n4c3=O)o2)cc1Cl [NBCoV79] | > 10 µM | > 10 µM | > 50 µM | > 50 µM | –
O=C(O)c1ccc(-c2ccc(/C=c3/sc4nc5ccccc5n4c3=O)o2)cc1 [NBCoV73] | > 10 µM | > 10 µM | > 50 µM | > 50 µM | –
COc1cc(/C=c2/sc3nc4ccccc4n3c2=O)ccc1OCc1cccc(C(=O)O)c1 [NBCoV77] | > 10 µM | > 10 µM | > 50 µM | > 50 µM | –
O=C(O)c1ccc(-c2ccc(/C=c3/sc4nc5ccccc5n4c3=O)o2)cc1Cl [NBCoV75] | 5.2 ± 0.6 µM | 3.3 ± 0.7 µM | > 50 µM | > 50 µM | –
CCC(CC)COC(=O)[C@H](C)N[P@](=O)(OC[C@H]1O[C@@](C#N)(c2ccc3c(N)ncnn23)[C@H](O)[C@@H]1O)Oc1ccccc1 [Remdesivir, reference compound] | – | – | – | – | IC50 (SARS-CoV-1 Urbani): 1.08 µM; IC50 (MERS-CoV, EMC/2012): 17.8 µM; CC50 (in vitro [11]): > 50 µM
Cc1cc2nc3s/c(=C\c4ccc(-c5ccc(OC(F)(F)F)cc5)o4)c(=O)n3c2cc1C [NBCoV82] | > 10 µM | > 10 µM | > 50 µM | > 50 µM | –
Cc1cc(C(=O)O)ccc1-c1ccc(/C=c2\sc3nc4ccccc4n3c2=O)o1 [NBCoV70] | 9.5 ± 1 µM | > 10 µM | > 50 µM | > 50 µM | –
Cc1cc2nc3s/c(=C/c4ccc(-c5ccc(Cl)cc5)o4)c(=O)n3c2cc1C [NBCoV78] | > 10 µM | 8.1 ± 0.2 µM | > 50 µM | > 50 µM | –
COc1cc(/C=c2/sc3nc4ccccc4n3c2=O)ccc1OCc1nnn[nH]1 [NBCoV80] | > 10 µM | > 10 µM | > 50 µM | > 50 µM | –
Cc1cc2nc3s/c(=C/c4ccc(-c5ccccc5C(=O)O)o4)c(=O)n3c2cc1C [NBCoV81] | 0.387 ± 0.064 µM | 0.459 ± 0.023 µM | > 50 µM | > 50 µM | –
O=C(O)c1ccc(Cl)c(-c2ccc(/C=c3/sc4nc5ccccc5n4c3=O)o2)c1 [NBCoV74] | > 10 µM | > 10 µM | > 50 µM | > 50 µM | –
Cc1cc2nc3s/c(=C\c4ccc(-c5ccc6c(c5)COC6=O)o4)c(=O)n3c2cc1C [NBCoV65] | > 10 µM | > 10 µM | > 50 µM | > 50 µM | –
O=C(O)c1cc(-c2ccc(/C=c3\sc4nc(=O)c5c6c(sc5n4c3=O)CCCC6)o2)ccc1Cl [NBCoV36] | 0.33 ± 0.018 µM | 0.227 ± 0.018 µM | 43 ± 0.9 µM | > 50 µM | IC50 [1, 12]: 0.433 ± 0.049 µM; IC50 [4, 14]: 0.66 ± 0.03 µM; IC50 [4, 15]: 0.147 ± 0.019 µM; IC50 [4, 16]: 0.627 ± 0.058 µM; IC50 [5, 17]: 0.428 ± 0.034 µM; IC50 [5, 18]: 0.589 ± 0.117 µM; IC50 ([5]; MRC5, read-out: MERS-CoV IC50): 0.837 ± 0.038 µM; IC50 [6]: 3.3 ± 0.1 µM; IC50 [7]: 0.9 µM; CC50 (in vitro [8]): > 50 µM; CC50 (in vitro [9]): > 50 µM; CC50 (in vitro [10]): > 50 µM
O=c1/c(=C/c2ccc(-c3ccccc3)o2)sc2nc3ccccc3n12 [NBCoV66] | > 10 µM | > 10 µM | > 50 µM | > 50 µM | antiviral activity (in words) [1]: no antiviral activity; also recorded: Inactive
Cc1ccc2c(nc3s/c(=C/c4ccc(-c5ccc(C(=O)O)cc5)o4)c(=O)n32)c1C [NBCoV69] | 2.55 ± 0.105 µM | 3 ± 0.4 µM | > 50 µM | > 50 µM | –
